Laboratory results: paper PMC7179119, “A New Positron Emission Tomography Probe for Orexin Receptors Neuroimaging” (Molecules, 2020)
Where two headings read alike, the source gives them in different places.

What was measured:
Test in all cases: PDSP off-target radioligand binding assay
GABAA = details: 10 µM
Procedure: (§1) Table S1. Off binding data of CW24.
(§2) The off-target binding assays were performed at PDSP with their standard protocol (https://pdspdb.unc.edu/pdspWeb/content/UNC-CH%20Protocol%20Book.pdf). In radioligand binding assays, CW24 was tested at a single concentration (10 µM) and in quadruplicate in 96-well plates. The binding assays were carried out in a final of volume of 125 µl per well in appropriate binding buffers. The hot ligand concentration is usually at a concentration close to the Kd (unless otherwise indicated). Total binding and nonspecific binding are determined in the absence and presence of 10 µM of the appropriate reference compound, respectively. In brief, plates are usually incubated at room temperature and in the dark for 90 mins. Reactions are stopped by vacuum filtration onto 0.3% polyethyleneimine (PEI) soaked 96-well filter mats using a 96-well Filtermate harvester, followed by three washes with cold wash buffers (for details, see Tables 2 to 24). Scintillation cocktail is then melted onto the microwave-dried filters on a hot plate and radioactivity is counted in a Microbeta counter.
(§3) Receptor % Inhibition 1 % Inhibition 2 % Inhibition 3 % Inhibition 4 Mean±SD %

Sigma 1 = details: 10 µM
Procedure: as §1, §2, §3

H2 = H2 (Homo sapiens, UniProt P25021)
Procedure: as §1, §2, §3

M4 = molecular target: T1, M4 (Homo sapiens, UniProt P08173)
T1 sequence (P08173 1-479): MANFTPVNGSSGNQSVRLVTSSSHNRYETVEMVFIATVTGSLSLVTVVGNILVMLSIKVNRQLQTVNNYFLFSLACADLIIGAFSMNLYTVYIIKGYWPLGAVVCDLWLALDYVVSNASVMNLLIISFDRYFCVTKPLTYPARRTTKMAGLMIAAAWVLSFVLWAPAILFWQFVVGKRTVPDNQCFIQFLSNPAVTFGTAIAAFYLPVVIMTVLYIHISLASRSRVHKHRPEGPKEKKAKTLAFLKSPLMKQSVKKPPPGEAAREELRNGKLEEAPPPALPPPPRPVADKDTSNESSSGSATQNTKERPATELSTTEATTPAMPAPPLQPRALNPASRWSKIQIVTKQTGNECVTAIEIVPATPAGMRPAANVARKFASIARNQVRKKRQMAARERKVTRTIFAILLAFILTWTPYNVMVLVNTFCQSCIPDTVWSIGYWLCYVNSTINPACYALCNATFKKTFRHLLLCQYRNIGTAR
Procedure: as §1, §2, §3

DAT = DAT (Homo sapiens, UniProt Q01959)
Procedure: as §1, §2, §3

M2 = molecular target: T2, M2 (Homo sapiens, UniProt P08172)
T2 sequence (P08172 1-466): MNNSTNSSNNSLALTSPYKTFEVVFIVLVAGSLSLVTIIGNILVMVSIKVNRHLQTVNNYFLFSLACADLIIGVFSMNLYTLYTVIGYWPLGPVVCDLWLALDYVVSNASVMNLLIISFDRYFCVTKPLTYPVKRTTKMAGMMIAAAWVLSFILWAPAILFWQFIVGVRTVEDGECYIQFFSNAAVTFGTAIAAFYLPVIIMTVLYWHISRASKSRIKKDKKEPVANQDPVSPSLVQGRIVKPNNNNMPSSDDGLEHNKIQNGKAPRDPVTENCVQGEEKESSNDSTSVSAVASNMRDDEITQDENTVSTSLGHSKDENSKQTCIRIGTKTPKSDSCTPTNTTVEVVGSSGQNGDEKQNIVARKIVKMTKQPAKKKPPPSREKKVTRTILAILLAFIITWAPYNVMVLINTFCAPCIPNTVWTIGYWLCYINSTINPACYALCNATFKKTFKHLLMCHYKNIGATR
Procedure: as §1, §2, §3

M3 = M3 (Homo sapiens, UniProt P20309)
Procedure: as §1, §2, §3

5-HT1D = molecular target: T3, 5-HT1D (Homo sapiens, UniProt P28221)
T3 construct: NIMH PDSP
Procedure: as §1, §2, §3

D2 = molecular target: T4, D2 (Homo sapiens, UniProt P14416)
T4 construct: NIMH PDSP
Procedure: as §1, §2, §3

5-HT2B = molecular target: T5, 5-HT2B (Homo sapiens, UniProt P41595)
T5 construct: NIMH PDSP
Procedure: as §1, §2, §3

[1] = quadruplicate, read-out: Mean±SD % inhibition
[2] = replicate 1, read-out: % Inhibition 1
[3] = replicate 2, read-out: % Inhibition 2
[4] = replicate 3, read-out: % Inhibition 3
[5] = replicate 4, read-out: % Inhibition 4

T3 sequence (P28221 whole entry, species assumed): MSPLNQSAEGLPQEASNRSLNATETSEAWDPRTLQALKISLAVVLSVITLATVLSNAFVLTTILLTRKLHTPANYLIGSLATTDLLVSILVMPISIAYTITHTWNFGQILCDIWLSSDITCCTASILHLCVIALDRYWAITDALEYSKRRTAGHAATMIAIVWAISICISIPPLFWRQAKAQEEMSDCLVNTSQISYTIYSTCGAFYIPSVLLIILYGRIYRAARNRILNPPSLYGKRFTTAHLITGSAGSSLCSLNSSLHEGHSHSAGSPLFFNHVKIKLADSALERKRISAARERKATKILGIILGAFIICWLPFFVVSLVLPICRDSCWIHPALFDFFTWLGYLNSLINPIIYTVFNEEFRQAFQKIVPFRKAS
Chain of DAT (Q01959 whole entry, species assumed): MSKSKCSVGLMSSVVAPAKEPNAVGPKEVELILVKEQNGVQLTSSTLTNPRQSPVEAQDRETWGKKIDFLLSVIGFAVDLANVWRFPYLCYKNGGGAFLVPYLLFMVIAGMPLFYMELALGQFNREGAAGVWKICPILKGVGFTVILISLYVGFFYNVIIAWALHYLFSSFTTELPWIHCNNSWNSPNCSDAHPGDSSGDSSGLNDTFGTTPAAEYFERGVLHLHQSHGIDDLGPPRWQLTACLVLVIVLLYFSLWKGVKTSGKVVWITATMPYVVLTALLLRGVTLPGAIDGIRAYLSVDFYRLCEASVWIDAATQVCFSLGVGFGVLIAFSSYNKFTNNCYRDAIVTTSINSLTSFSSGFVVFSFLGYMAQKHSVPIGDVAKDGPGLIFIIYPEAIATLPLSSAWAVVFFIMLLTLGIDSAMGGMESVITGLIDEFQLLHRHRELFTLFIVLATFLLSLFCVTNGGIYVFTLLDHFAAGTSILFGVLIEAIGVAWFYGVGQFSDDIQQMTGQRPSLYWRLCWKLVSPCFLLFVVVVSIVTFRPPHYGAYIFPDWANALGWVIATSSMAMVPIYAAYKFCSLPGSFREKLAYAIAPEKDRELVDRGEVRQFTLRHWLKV
T5 sequence (P41595 whole entry, species assumed): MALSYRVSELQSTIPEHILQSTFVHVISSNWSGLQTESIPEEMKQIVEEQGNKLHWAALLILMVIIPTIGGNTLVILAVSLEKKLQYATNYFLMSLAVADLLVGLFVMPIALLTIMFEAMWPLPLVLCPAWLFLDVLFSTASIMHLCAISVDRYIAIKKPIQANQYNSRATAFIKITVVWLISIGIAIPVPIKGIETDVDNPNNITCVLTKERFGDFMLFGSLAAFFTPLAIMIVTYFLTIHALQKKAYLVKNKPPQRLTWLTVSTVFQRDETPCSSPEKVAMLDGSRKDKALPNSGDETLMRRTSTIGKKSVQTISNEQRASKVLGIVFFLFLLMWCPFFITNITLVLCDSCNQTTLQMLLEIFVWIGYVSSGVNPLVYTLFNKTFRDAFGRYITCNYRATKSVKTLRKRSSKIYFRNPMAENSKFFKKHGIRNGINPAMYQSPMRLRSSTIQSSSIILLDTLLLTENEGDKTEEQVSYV
T4 sequence (P14416 whole entry): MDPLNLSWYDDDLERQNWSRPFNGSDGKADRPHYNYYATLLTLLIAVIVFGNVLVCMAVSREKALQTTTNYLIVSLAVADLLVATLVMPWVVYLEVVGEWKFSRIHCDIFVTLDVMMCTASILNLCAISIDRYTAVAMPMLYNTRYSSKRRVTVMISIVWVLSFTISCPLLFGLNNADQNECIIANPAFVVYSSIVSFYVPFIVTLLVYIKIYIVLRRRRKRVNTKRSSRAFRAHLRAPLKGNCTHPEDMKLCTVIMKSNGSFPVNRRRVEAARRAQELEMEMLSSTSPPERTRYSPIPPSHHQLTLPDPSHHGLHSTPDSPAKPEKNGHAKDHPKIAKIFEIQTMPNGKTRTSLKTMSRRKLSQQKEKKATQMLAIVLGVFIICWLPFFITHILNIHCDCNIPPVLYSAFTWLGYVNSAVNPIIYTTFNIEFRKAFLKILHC
Chain of M3 (P20309 whole entry): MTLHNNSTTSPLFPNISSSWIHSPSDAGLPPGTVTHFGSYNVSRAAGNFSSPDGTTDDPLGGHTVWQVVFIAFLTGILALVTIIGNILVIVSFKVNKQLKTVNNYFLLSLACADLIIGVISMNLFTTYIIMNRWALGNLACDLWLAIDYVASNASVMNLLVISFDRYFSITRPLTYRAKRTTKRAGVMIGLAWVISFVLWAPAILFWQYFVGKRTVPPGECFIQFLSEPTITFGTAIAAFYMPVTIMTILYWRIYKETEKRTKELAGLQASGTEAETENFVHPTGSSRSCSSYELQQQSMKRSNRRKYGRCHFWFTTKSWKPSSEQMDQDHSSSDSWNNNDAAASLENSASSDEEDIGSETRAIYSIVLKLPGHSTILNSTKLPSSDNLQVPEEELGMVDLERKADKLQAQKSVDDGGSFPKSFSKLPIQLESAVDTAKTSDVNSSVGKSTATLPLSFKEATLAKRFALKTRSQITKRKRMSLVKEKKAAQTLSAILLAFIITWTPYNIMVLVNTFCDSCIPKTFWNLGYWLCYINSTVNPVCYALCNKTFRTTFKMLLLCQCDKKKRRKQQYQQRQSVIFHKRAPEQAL
Chain of H2 (P25021 whole entry): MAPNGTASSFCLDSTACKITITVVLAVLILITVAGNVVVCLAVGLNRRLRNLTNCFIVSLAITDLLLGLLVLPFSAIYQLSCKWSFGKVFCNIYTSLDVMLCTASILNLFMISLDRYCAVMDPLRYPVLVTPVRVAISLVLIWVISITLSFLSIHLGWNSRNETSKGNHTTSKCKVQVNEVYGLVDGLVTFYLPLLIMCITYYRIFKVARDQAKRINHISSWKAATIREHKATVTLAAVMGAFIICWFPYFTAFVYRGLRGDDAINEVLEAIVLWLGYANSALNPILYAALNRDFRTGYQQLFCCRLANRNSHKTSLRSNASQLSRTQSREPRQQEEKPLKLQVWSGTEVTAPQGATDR

In the case of `COc1ccnc(N2CCC3(CCCN(Cc4cn(C)c5ccccc45)C3=O)CC2)n1` [CW24], the “Mean±SD % inhibition” value (GABAA; quadruplicate) is reported as 11.56 ± 11.5%, the “% Inhibition 1” value (GABAA; replicate 1) is reported as 24.87% and the “% Inhibition 2” value (GABAA; replicate 2) is reported as 0.04%. The “% Inhibition 3” value (GABAA; replicate 3) was 4%, the “% Inhibition 4” value (GABAA; replicate 4) was 17.31% and the “Mean±SD % inhibition” value (Sigma 1; quadruplicate) was 12.33 ± 12.50%. The “% Inhibition 1” value (Sigma 1; replicate 1) was 8.39%, the “% Inhibition 2” value (Sigma 1; replicate 2) was 1.56% and the “% Inhibition 3” value (Sigma 1; replicate 3) was 8.99%. For the same compound, the “% Inhibition 4” value (Sigma 1; replicate 4) was 30.38%, the inhibition at 10 µM (H2; [1]) was 24.2 ± 1.43% and the inhibition at 10 µM (H2; [2]) was 25.4%. The inhibition at 10 µM (H2; [3]) was 24.4%, the inhibition at 10 µM (H2; [4]) was 24.8% and the inhibition at 10 µM (H2; [5]) was 22.1%. It also gave an inhibition at 10 µM (M4; [1]) of -3.86 ± 14.8%, an inhibition at 10 µM (M4; [2]) of 0.88% and an inhibition at 10 µM (M4; [3]) of -23.9%. For the same compound, the inhibition at 10 µM (M4; [4]) was -3.92%, the inhibition at 10 µM (M4; [5]) was 11.5% and the inhibition at 10 µM (DAT; [1]) was 4.6 ± 8.8%. The inhibition at 10 µM (DAT; [2]) was -0.27%, the inhibition at 10 µM (DAT; [3]) was -4.72% and the inhibition at 10 µM (DAT; [4]) was 8.47%. For the same compound, the inhibition at 10 µM (DAT; [5]) was 14.9%, the inhibition at 10 µM (M2; [1]) was -0.08 ± 16.7% and the inhibition at 10 µM (M2; [2]) was -1.12%. It also gave an inhibition at 10 µM (M2; [3]) of -4.61%, an inhibition at 10 µM (M2; [4]) of -17.4% and an inhibition at 10 µM (M2; [5]) of 22.8%. The inhibition at 10 µM (M3; [1]) was -9.56 ± 5.94%, the inhibition at 10 µM (M3; [2]) was -5.69% and the inhibition at 10 µM (M3; [3]) was -3.65%. The inhibition at 10 µM (M3; [4]) was -12.4%, the inhibition at 10 µM (M3; [5]) was -16.5% and the inhibition at 10 µM (5-HT1D; [1]) was 23.5 ± 9.4%. For the same compound, the inhibition at 10 µM (5-HT1D; [2]) was 32.1%, the inhibition at 10 µM (5-HT1D; [3]) was 20% and the inhibition at 10 µM (5-HT1D; [4]) was 11.9%. The inhibition at 10 µM (5-HT1D; [5]) was 30.2%, the inhibition at 10 µM (D2; [1]) was -1.7 ± 19.3% and the inhibition at 10 µM (D2; [2]) was -8.12%. The inhibition at 10 µM (D2; [3]) was 21.4%, the inhibition at 10 µM (D2; [4]) was -24.2% and the inhibition at 10 µM (D2; [5]) was 4.13%. The inhibition at 10 µM (5-HT2B; [1]) was 21.6 ± 7.7%, the inhibition at 10 µM (5-HT2B; [2]) was 45.9% and the inhibition at 10 µM (5-HT2B; [3]) was 11.3%. The inhibition at 10 µM (5-HT2B; [4]) was 11.2% and the inhibition at 10 µM (5-HT2B; [5]) was 17.8%.
